# What was measured:
# Assay type in all cases: cell-based, Staphylococcus aureus
# sbnB::Tet mutant = details: iron-restricted media / serum
# Source text: SbnB encodes a putative ornithine cyclodeaminase and may work in concert with SbnA to produce L-2,3-diaminopropionic acid, a likely precursor for staphylobactin. Ornithine cyclodeaminases mediate the deamination of ornithine and cyclization to proline and depended on NAD+. A mutation in sbnB was created by insertion of a Tet cassette. […] While proline is unlikely to be a siderophore precursor, ammonia may be a desired product for staphylobactin biosynthesis. […] Further, we observed in a mouse kidney abscess experiment, sbnB deficient strains were compromised for virulence (data not shown, n=7 mice).
# [1] = system: sbnD mutant and wild type strains; test: MIC comparison of sbnD mutant and wild type strains; details: sbnD::Km mutant versus wild type
# Source text: SbnD encodes a putative multi-drug efflux pump. A mutation in sbnD was created by insertion of a Km cassette.
# S. aureus RN6390 = test: Siderophore plate bioassay (promotion of iron-restricted growth); details: HPLC-isolated peak from culture supernatant of RN6390 fur::Km; TMS medium with 20 μM EDDHA
# Description: The ability of siderophores to promote the iron-restricted growth of S. aureus was assessed using siderophore plate bioassays, performed as previously described (Sebulsky et al., (2000) J. Bacteriol. 182:4394-4400). Briefly, S. aureus RN6390 was incorporated into solid TMS medium (1.4×10^4 cells/ml) containing 20 μM EDDHA. The ability of purified siderophores to promote growth of S. aureus was assessed after incubation of plates for 36 hours at 37° C.
Molecule,rescue of the iron-restricted growth phenotype of the sbnB mutant by added compound (sbnB::Tet mutant),difference in MIC (minimum inhibitory concentration) values between sbnD mutant and wild type strains [1],also measured
NCC(N)C(=O)O (centres unmarked) [diaminopropionic acid],can be overcome,,
CCn1cc(C(=O)O)c(=O)c2ccc(C)nc21 [nalidixic acid],,No difference,
CCn1cc(C(=O)O)c(=O)c2cc(F)c(N3CCNCC3)cc21 [norfloxacin],,No difference,
O=C(O)[C@@H]1CCCN1 [proline],does not bypass the sbnB mutation,,
staphylobactin,,,biological activity in siderophore plate bioassays (promotion of iron-restricted growth of S. aureus) (S. aureus RN6390): retained biological activity

# — patent publication US20110206685A1, “SCREENING ASSAYS FOR INHIBITORS OF A STAPHYLOCOCCUS AUREUS SIDEROPHORE” (priority 2004, published 2011)
